Laboratory results from patent publication US20230143604A1, “QW DOSING OF GIP RECEPTOR AGONIST PEPTIDE COMPOUNDS AND USES THEREOF” (TAKEDA PHARMACEUTICAL COMPANY LIMITED, priority 2020, published 2023).
Starred links: 1 amine or outer side, 2 acyl side, 3 side chain; linkers in the order of their positions; H or OH if unused. Non-standard residues stand in square brackets, D forms with d. Residues, ends and D or L forms follow the SMILES beside them. Groups on a side chain read outwards from the residue. *: point of attachment. C20 diacid = O=C(O)CCCCCCCCCCCCCCCCCCC(=O)*; C18 diacid = O=C(O)CCCCCCCCCCCCCCCCC(=O)*; C17 diacid = O=C(O)CCCCCCCCCCCCCCCC(=O)*; γGlu = O=C(O)[C@H](CCC(=O)[*:2])N[*:1]; NMeY = CN[C@@H](Cc1ccc(O)cc1)C(=O)O; AEEA = NCCOCCOCC(=O)O; Aib = CC(C)(N)C(=O)O

What was measured:
[1] = Dog plasma protein binding (PPB); type: in vitro ADME; details: pH 7.4; fraction unbound; dog serum; read-out: Dog PPB (FUplasma)
From the text: Dog PPB values presented below are obtained essentially as described for Human PPB samples, with the difference being that dog serum is used instead of human serum. Table 10 is provided with the values of (Fu,plasma) as fraction unbound expressed as a percentage compared to the percent bound. i.e. if the value is 0.0123, then the fraction unbound is […], which is 1.23% of the peptide is unbound and 98.77% is bound in plasma. Methods and analysis for performing the dog PPB protocol and results are the same as noted herein as for the Human PPB protocol and analysis.

[2] = Human plasma protein binding (PPB); type: in vitro ADME; details: both sexes, pH 7.4; fraction unbound; human plasma, 1000 nmol/L peptide, ultracentrifugation; read-out: Human PPB (FUplasma)
Procedure: Stock solutions: (1000 μM) of the peptides are prepared in DMSO.
Human plasma (mixed gender; containing K2-EDTA as anti-coagulant; pre-adjusted to pH 7.4—NB alternative species may be used) is spiked individually with each test peptide (1000 nmol/L), sampled for analysis and then incubated (n=4) at 37° C. in a water bath for 30 minutes. Following the incubation period, the plasma is sampled for analysis, then transferred to ultracentrifugation tubes and centrifuged (n=3) at […] and 4° C. for 3 hours, after which the supernatant is sampled for analysis. An additional aliquot of the supernatant is taken at the end of the centrifugation period to determine the total protein concentration. An aliquot of the incubated plasma will be stored at 4° C. for 3 hours and then sampled for analysis. At the point of sampling, all samples are matrix-matched, treated with ice-cold acetonitrile/methanol (4:1 (vfv)) containing internal standard, centrifuged al 2000 g and 4° C. for 10 minutes and stored prior to LC-MS/MS analysis. An appropriate positive control compound control will be incubated and centrifuged in parallel; control plasma is also centrifuged to generate samples for matrix-matching. Fraction unbound in plasma (Fuplasma) values is determined by comparison of the analyte response in plasma to the analyte response in the supernatant, determined via peak area response ratios.
The samples are analyzed by LC-MS/MS using a 6500 (or equivalent) triple quadrupole mass spectrometer (AB Sciex) coupled to an appropriate Liquid Chromatography (LC) system. Protein binding and stability values are determined via peak area ratios using multiple reaction monitoring (MRM) parameters following compound optimisation. Multiple reaction monitoring (MRM) is a highly sensitive method of targeted mass spectrometry (MS) that can be used to selectively detect and quantify peptides based on the screening of specified precursor peptide-to-fragment ion transitions.

[3] = physchem
Outline: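 3 mg of peptide treated with 100 μL portions of 200 mM phosphate buffer pH 7.4, sonicating/vortexing up to 1 min, with further buffer added until fully dissolved. Solubility then quantified by HPLC.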

SMILES | fraction unbound [1] | fraction unbound [2] | solubility ([3]; pH 7.4) [mg/mL] | solubility ([3]; pH 7.4, aqueous buffer) [mg/mL]
CC[C@H](C)[C@H](NC(=O)[C@H](CO)NC(=O)[C@H](Cc1ccc(O)cc1)NC(=O)[C@H](CC(=O)O)NC(=O)[C@H](CO)NC(=O)[C@@H](NC(=O)[C@H](Cc1ccccc1)NC(=O)[C@@H](NC(=O)CNC(=O)[C@H](CCC(=O)O)NC(=O)C(C)(C)NC(=O)[C@H](Cc1ccc(O)cc1)NC)[C@@H](C)O)[C@@H](C)CC)C(=O)N[C@@H](C)C(=O)N[C@@H](CC(C)C)C(=O)N[C@@H](CC(=O)O)C(=O)N[C@@H](CCCNC(=N)N)C(=O)NC(C)(C)C(=O)N[C@@H](Cc1c[nH]cn1)C(=O)N[C@@H](CCC(N)=O)C(=O)NC(C)(C)C(=O)N[C@@H](CC(N)=O)C(=O)N[C@@H](Cc1ccccc1)C(=O)N[C@H](C(=O)N[C@@H](CC(N)=O)C(=O)N[C@@H](Cc1c[nH]c2ccccc12)C(=O)N[C@@H](CC(C)C)C(=O)N[C@@H](CC(C)C)C(=O)N[C@@H](C)C(=O)N[C@@H](CCCCNC(=O)COCCOCCNC(=O)COCCOCCNC(=O)CC[C@H](NC(=O)CC[C@H](NC(=O)CCCCCCCCCCCCCCCCC(=O)O)C(=O)O)C(=O)O)C(=O)N[C@@H](CCCNC(=N)N)C(N)=O)C(C)C [Compound 19] (H-[NMeY][Aib]EGTFISDYSIALDR[Aib]HQ[Aib]NFVNWLLAK([AEEA-AEEA-γGlu-γGlu-C18 diacid])R-NH2) | 0.0005 | 0.0011 | ≥ 15 | ≥ 30
CC[C@H](C)[C@H](NC(=O)[C@H](CO)NC(=O)[C@H](Cc1ccc(O)cc1)NC(=O)[C@H](CC(=O)O)NC(=O)[C@H](CO)NC(=O)[C@@H](NC(=O)[C@H](Cc1ccccc1)NC(=O)[C@@H](NC(=O)CNC(=O)[C@H](CCC(=O)O)NC(=O)C(C)(C)NC(=O)[C@H](Cc1ccc(O)cc1)NC)[C@@H](C)O)[C@@H](C)CC)C(=O)N[C@@H](C)C(=O)N[C@@H](CC(C)C)C(=O)N[C@@H](CC(=O)O)C(=O)N[C@@H](CCCNC(=N)N)C(=O)NC(C)(C)C(=O)N[C@@H](C)C(=O)N[C@@H](CCC(N)=O)C(=O)NC(C)(C)C(=O)N[C@@H](CCCCNC(=O)COCCOCCNC(=O)COCCOCCNC(=O)CC[C@H](NC(=O)CC[C@H](NC(=O)CCCCCCCCCCCCCCCC(=O)O)C(=O)O)C(=O)O)C(=O)N[C@@H](Cc1ccccc1)C(=O)N[C@H](C(=O)N[C@@H](CC(N)=O)C(=O)N[C@@H](Cc1c[nH]c2ccccc12)C(=O)N[C@@H](CC(C)C)C(=O)N[C@@H](CC(C)C)C(=O)N[C@@H](C)C(=O)N[C@@H](CCC(N)=O)C(=O)N[C@@H](CCCNC(=N)N)C(=O)NCC(=O)O)C(C)C [Compound 36] (H-[NMeY][Aib]EGTFISDYSIALDR[Aib]AQ[Aib]K([AEEA-AEEA-γGlu-γGlu-C17 diacid])FVNWLLAQRG-OH) | 0.0034 | < 0.002 | ≥ 15 | ≥ 60
CC[C@H](C)[C@H](NC(=O)[C@H](CO)NC(=O)[C@H](Cc1ccc(O)cc1)NC(=O)[C@H](CC(=O)O)NC(=O)[C@H](CO)NC(=O)[C@@H](NC(=O)[C@H](Cc1ccccc1)NC(=O)[C@@H](NC(=O)CNC(=O)[C@H](CCC(=O)O)NC(=O)C(C)(C)NC(=O)[C@H](Cc1ccc(O)cc1)NC)[C@@H](C)O)[C@@H](C)CC)C(=O)N[C@@H](C)C(=O)N[C@@H](CC(C)C)C(=O)N[C@@H](CC(=O)O)C(=O)N[C@@H](CCCNC(=N)N)C(=O)NC(C)(C)C(=O)N[C@@H](C)C(=O)N[C@@H](CCC(N)=O)C(=O)NC(C)(C)C(=O)N[C@@H](CCCCNC(=O)COCCOCCNC(=O)COCCOCCNC(=O)CC[C@H](NC(=O)CC[C@H](NC(=O)CCCCCCCCCCCCCCCCC(=O)O)C(=O)O)C(=O)O)C(=O)N[C@@H](Cc1ccccc1)C(=O)N[C@H](C(=O)N[C@@H](CC(N)=O)C(=O)N[C@@H](Cc1c[nH]c2ccccc12)C(=O)N[C@@H](CC(C)C)C(=O)N[C@@H](CC(C)C)C(=O)N[C@@H](C)C(=O)N[C@@H](CCC(N)=O)C(=O)N[C@@H](CCCNC(=N)N)C(=O)NCC(=O)O)C(C)C [Compound 37] (H-[NMeY][Aib]EGTFISDYSIALDR[Aib]AQ[Aib]K([AEEA-AEEA-γGlu-γGlu-C18 diacid])FVNWLLAQRG-OH) | 0.0012 | 0.001 | ≥ 15 | ≥ 30
CC[C@H](C)[C@H](NC(=O)[C@H](CO)NC(=O)[C@H](Cc1ccc(O)cc1)NC(=O)[C@H](CC(=O)O)NC(=O)[C@H](CO)NC(=O)[C@@H](NC(=O)[C@H](Cc1ccccc1)NC(=O)[C@@H](NC(=O)CNC(=O)[C@H](CCC(=O)O)NC(=O)C(C)(C)NC(=O)[C@H](Cc1ccc(O)cc1)NC)[C@@H](C)O)[C@@H](C)CC)C(=O)N[C@@H](C)C(=O)N[C@@H](CC(C)C)C(=O)N[C@@H](CC(=O)O)C(=O)N[C@@H](CCCNC(=N)N)C(=O)NC(C)(C)C(=O)N[C@@H](C)C(=O)N[C@@H](CCC(N)=O)C(=O)NC(C)(C)C(=O)N[C@@H](CCCCNC(=O)COCCOCCNC(=O)COCCOCCNC(=O)CC[C@H](NC(=O)CC[C@H](NC(=O)CCCCCCCCCCCCCCCCCCC(=O)O)C(=O)O)C(=O)O)C(=O)N[C@@H](Cc1ccccc1)C(=O)N[C@H](C(=O)N[C@@H](CC(N)=O)C(=O)N[C@@H](Cc1c[nH]c2ccccc12)C(=O)N[C@@H](CC(C)C)C(=O)N[C@@H](CC(C)C)C(=O)N[C@@H](C)C(=O)N[C@@H](CCC(N)=O)C(=O)N[C@@H](CCCCN)C(=O)NCC(=O)O)C(C)C [Compound 39] (H-[NMeY][Aib]EGTFISDYSIALDR[Aib]AQ[Aib]K([AEEA-AEEA-γGlu-γGlu-C20 diacid])FVNWLLAQKG-OH) | 0.0015 | 0.0112 | ≥ 15 | ≥ 30
